In article PMC2156146 (The Journal of Cell Biology, 1999) one finds Kd data, which are given here for one compound.

The experiment addresses T1, SRβ (30-kD β-subunit of the SRP receptor) in SR liposomes (Canis lupus, UniProt A0A8I3Q3L6).
T1 sequence (A0A8I3Q3L6 1-271): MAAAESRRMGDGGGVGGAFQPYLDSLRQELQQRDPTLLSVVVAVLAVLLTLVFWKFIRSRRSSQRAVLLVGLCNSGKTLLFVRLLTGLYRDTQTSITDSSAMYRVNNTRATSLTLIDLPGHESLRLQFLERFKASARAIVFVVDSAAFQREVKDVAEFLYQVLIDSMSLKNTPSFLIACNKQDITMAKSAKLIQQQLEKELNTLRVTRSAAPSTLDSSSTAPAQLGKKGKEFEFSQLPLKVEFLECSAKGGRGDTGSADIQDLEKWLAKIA
T1 sequence (P06625 1-638 partner): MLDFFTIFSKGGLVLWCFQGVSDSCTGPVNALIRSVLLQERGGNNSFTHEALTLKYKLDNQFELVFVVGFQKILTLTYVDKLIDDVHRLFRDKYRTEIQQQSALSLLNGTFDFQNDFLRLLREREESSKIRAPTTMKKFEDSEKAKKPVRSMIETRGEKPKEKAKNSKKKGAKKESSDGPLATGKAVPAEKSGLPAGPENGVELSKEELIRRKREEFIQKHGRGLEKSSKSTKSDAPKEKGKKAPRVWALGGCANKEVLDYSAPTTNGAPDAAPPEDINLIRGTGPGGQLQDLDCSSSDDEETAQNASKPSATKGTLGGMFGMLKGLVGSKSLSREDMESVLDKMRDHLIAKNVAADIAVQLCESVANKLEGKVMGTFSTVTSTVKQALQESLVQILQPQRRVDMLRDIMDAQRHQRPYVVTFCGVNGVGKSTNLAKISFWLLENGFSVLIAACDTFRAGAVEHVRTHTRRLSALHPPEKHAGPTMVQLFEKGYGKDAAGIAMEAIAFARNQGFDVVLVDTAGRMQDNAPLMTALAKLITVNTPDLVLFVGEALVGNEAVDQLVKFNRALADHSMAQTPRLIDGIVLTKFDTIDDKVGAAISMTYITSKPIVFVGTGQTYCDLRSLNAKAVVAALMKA
The experiment can be described thus: UV cross-linking of alpha-[…]GTP, saturation, SDS-PAGE and PhosphorImaging. Type of experiment: binding.

In general, Kd refers to a measure of binding affinity in units of concentration. A higher Kd goes with lower affinity. With `Nc1nc2c(ncn2[C@@H]2O[C@H](COP(=O)(O)OP(=O)(O)OP(=O)(O)O)[C@@H](O)[C@H]2O)c(=O)[nH]1` [GTP], the Kd was found to be 20 nM.
